{"source": "patent US8772237B2", "about": "“Compositions and methods for counteracting effects of reactive oxygen species and free radicals” (Ischemix, Inc., priority 1999, dated 2014)", "key": {"[1]": {"tested_on": "superoxide dismutase (SOD) protein", "test": "Western immunoblot of SOD protein in rat brain primary cortical cultures", "assay_type": "cell-based", "details": "Dose 6.7 pmol/ml, 5 hours at 37° C.", "experimental": "Primary cortical cultures were obtained by growing newborn rat brain cortical cells in Delbecco's modified Eagle medium supplemented with 25 μg/ml of gentamycin and 10% fetal calf serum. The cells were isolated from the E-21 cortex of rat brain, plated at a density of 1×10^5 per ml and grown to confluence within four to five days in an atmosphere containing air and 5% CO2 at 37° C. as described in Cornell-Bell et al., Science, 247: 470-473 (1990) and Cell Calcium, 12: 185-204 (1991). Cultures were grown in 20 ml flasks as a monolayer and then exposed to various concentrations of peptides for studies of the effects of peptides on upregulation of genes for SOD and CAT and on the transmigration of transcription factor AP-1 to cell nuclei. […]\nTissue culture experiments were carried out using primary cultures of rat brain cortical cells as previously described above in Example 2. Primary cultures from embryonic rat brain isolated at E-21 (21 day embryos) and incubated for five hours with various doses: 1, 10, 100 ng/ml of CMX-99672. Cytoplasmic proteins were isolated and analyzed for upregulation of SOD and CAT by Western immunoblots as described above. […] The Western blot was scanned to quantify the fold-increase in SOD production in cell cultures treated with the CMX-99672 peptide compound.\nRepresentative peptide compounds were tested at various doses and compared for their ability to upregulate expression of genes for SOD and/or CAT in rat primary cortical cultures basically as described above. Cultures were incubated with a peptide compound for 5 hours at 37° C. Cytoplasmic protein fractions were prepared as described above. Cytoplasmic proteins were separated by gel electrophoresis and analyzed by Western immunoblots using antisera to SOD and CAT, respectively (Rockland, Inc., Gilbertsville, Pa.). […]"}, "[2]": {"tested_on": "middle cerebral artery (MCA) temporary occlusion stroke model", "test": "Temporary MCA occlusion stroke model", "assay_type": "in vivo, Sprague-Dawley rats", "experimental": "The in vivo neuroprotective effects of CMX-9236 were investigated in both temporary and permanent occlusion stroke models in Sprague-Dawley rats using an intraluminal suture of the middle cerebral artery (MCA) occlusion method (Zea Longa et al., Stroke, 20: 84 (1989)). Briefly, a 4-0 silicone-coated suture was inserted through the right common carotid artery to block the MCA orifice. In the temporary model, CMX-9236 (6.2 mg/kg/hr) or vehicle was administered via the femoral vein at 30 minutes after the start of a 2-hour occlusion for a 4-hour continuous infusion; the rats were then reperfused by withdrawing the suture at […] after the MCA occlusion. All experiments were performed in a blinded and randomized manner, and rectal temperature was maintained at 37° C. The animals were sacrificed, and their brains were removed, sectioned into six 2-mm-thick coronal slices and stained with 2,3,5-triphenyltetrazolium chloride solution (Bederson et al., Stroke, 17:1304 (1986)) to visualize the extent of brain damage for the calculation of the corrected hemispheric infarct volumes (Nagasawa and Kogure, Stroke, 20:1037 (1989); Li et al., J. Cereb. Blood Flow Metab., 17:1132 (1997)). […] This represents a significant reduction of infarct size (35±5%, p=0.01, student t-test) for the CMX-9236-treated group in the temporary occlusion model. There was also a 58+11% improvement in the neurological scoring (Minematsu et al., Neurology, 42:235 (1992)) for the peptide-treated group versus controls at the end of 24 hours."}, "[3]": {"tested_on": "transcription factor AP-1", "test": "Electrophoretic mobility shift assay (EMSA) for AP-1 activation in primary rat neurons / cortical cultures", "assay_type": "cell-based", "experimental": "Nuclear extracts for electrophoretic mobility shift assays (EMSAs) were prepared as described previously (Adams et al., J. Leukocyte Biol., 62: 865-873 (1997)) using 1.0-2.0×10^7 cells per sample. All buffers were freshly supplemented with dithiothreitol (DTT, 0.5 mM), protease inhibitors: PMSF (0.5 mM), chymostatin, peptstatin-A, aprotinin, antipain, leupeptin (each at 1 μg/ml), and phosphatase inhibitors: NaF (10 mM), ZnCl2 (1 mM), sodium orthovanadate (1 mM), and sodium pyrophosphate (5 mM). Aliquots of the final dialyzates were stored at −80° C. and discarded after use.\nAP-1 transcription factor activation was assayed using an electrophoretic mobility shift assay (EMSA), as described by Adams et al., J. Leukoc. Biol., 62:865-873 (1997)). Cultures of primary rat neurons (Cornell-Bell et al., Cell Calcium, 12: 185-204 (1991)) were stimulated for 3 hours with various concentrations (0, 1, 10, 100 ng/ml) of peptide CMX-9236. Nuclear extracts prepared as described above were separated by gel electophoresis on non-denaturing gels and subjected to the EMSA procedure. This EMSA used an AP-1 synthetic duplex probe (Angel, P., 1987, Cell 49:729-739) having the sequence 5′-[…] (SEQ ID NO:33) and its antisense copy (complement strand), which were end-labeled with P^32 using polynucleotide kinase and (γ-P^32)-ATP. For the EMSA reaction, the labeled probe (0.5 pmol) was mixed with 3 μg of nuclear extract protein in a solution containing 10 mM Tris-HCl, pH 7.5, 50 mM NaCl, 1 mM EDTA, 1 mM dithiothreitol, 5% glycerol, 0.02% β-mercaptoethanol, and 1 μg of poly-dI/dC (Pharmacia). Reaction mixtures were incubated at 25° C. for 20 minutes to allow complete complex formation by the duplex with its appropriate AP-1 protein. The mixture was then electrophoresed under non-denaturing conditions through 4% polyacrylamide gels in 0.5×TBE buffer (45 mM Trisma base, 45 mM boric acid, 1 mM EDTA). The gels were dried on 3 mm paper. Bands were visualized by autoradiography at −80° C. with one intensifying screen and quantified by laser densitometry. The upregulation of AP-1 and the activation and upregulation process of AP-1 was compared to control cultures.\nPrimary cortical cell cultures were grown to confluence and used in in vitro cultures for determining the effects of various representative peptide compounds on upregulation of AP-1. […] Extracts were prepared from the nuclei isolated from the primary culture homogenates, purified, and analyzed for the presence of specific transcription factors using the electrophoretic mobility shift assay (EMSA) method. The binding of ^32P-labeled duplex DNA probes specific for activator protein-1 (AP-1) or nuclear factor κB (NF-κB) was analyzed and quantified by autoradiography. After a 3-hour incubation of the cultures with 1 ng/ml of the peptide CMX-9236 there was a 15-fold increase of AP-1 relative to […] control cultures. […] Thus, a small peptide compound that is less than 20 amino acids long can simulate the properties of large growth factors such as NGF and BDNF, which exist as dimers of protein chains with molecular weights of 13,259 and 13,500, respectively."}}, "note": "Ends that are not written are not given here.", "data": [{"sequence": "KKDGDGDFAIDAPE [CMX-9236, uncapped peptide]", "values": [{"measurement": "SOD", "setting": "[1]", "value": 466, "unit": "% Control"}, {"measurement": "corrected infarct volume (mean±S.E.)", "setting": "[2]; 6.2 mg/kg/hr i.v., 4-hour infusion from 30 min after start of occlusion, n=10", "value": "117.3±17", "unit": "mm^3"}, {"measurement": "reduction of infarct size vs vehicle", "setting": "[2]; 6.2 mg/kg/hr, p=0.01", "value": "35±5", "unit": "%"}, {"measurement": "improvement in neurological scoring vs controls", "setting": "[2]; at the end of 24 hours", "value": "58+11%"}, {"measurement": "fold-increase of AP-1", "setting": "[3]; 1 ng/ml, 3-hour incubation", "value": 15, "unit": "fold"}, {"measurement": "fold-increase of AP-1 (binding of DNA duplex probe)", "setting": "[3]; 100 ng/ml, 3 hours", "value": 60, "unit": "fold"}]}]}
